From PMC9230590, “Pharmacokinetics and Tissue Distribution of Enavogliflozin in Mice and Rats” (Pharmaceutics, 2022)
“And” between values parts separate entries of the source, which are not always exact repeats. Identical values can stand only once. Like-named read-outs stand apart in the source and are kept apart here.

Tests used:
[1] = Tissue distribution after single or repeated oral administration (7 or 14 days) in mice; type: in vivo, ICR mice; settings: for Kp / AUC(0-t): ICR, mouse, po, 1 mg/kg; for Kp: read-out: AUC Ratio (AUC48 h, tissue / AUC48 h, plasma); for AUC(0-t): plasma, read-out: AUC48 h; for AUC48 h: oral 1 mg/kg
Description: Thirty-five ICR mice were randomly divided into five groups (n = 7 per sampling time point) and administered with an enavogliflozin solution (1 mg/kg, once daily) for 14 days via oral gavage. Another thirty-five ICR mice were randomly divided into five groups (n = 7 per sampling time point) and administered with an enavogliflozin solution (1 mg/kg, once daily) for 7 days via oral gavage. The other thirty-five ICR mice were randomly divided into five groups (n = 7 per sampling time point) and administered with an enavogliflozin solution at a dose of 1 mg/kg via oral gavage. Blood samples (approximately 0.2 mL) were collected at 1, 2, 8, 24, and 48 h via the abdominal artery. Subsequently, whole tissues, including kidney, liver, small intestine, and large intestine, were isolated. An aliquot (30 µL) of plasma and aliquots (50 µL) of tissue homogenate samples were prepared and stored with the same procedures described above.
(§1) Concentrations of enavogliflozin in plasma and tissue homogenate samples were analyzed using an Agilent 6430 triple quadrupole liquid chromatography-mass spectrometry (LC–MS/MS) system (Agilent, Wilmington, DE, USA) following a previously published method.
The data were expressed as the means ± standard deviation for the groups. Pharmacokinetic parameters, such as the area under the plasma concentration–time curve during the period of observation (AUClast), AUC to infinite time (AUC∞), clearance (CL), and volume of distribution at steady-state (Vd,ss), the terminal half-life (t1/2), and mean residence time (MRT) were calculated using non-compartment analysis with WinNonlin software (version 5.1; Pharsights, Cary, NC, USA). The AUC ratios were calculated by dividing the AUClast of enavogliflozin in the tissue samples by the plasma AUClast values of enavogliflozin [15].

[2] = test system: hepatocytes; set-up: method as in PMID 32932946; settings: monkey hepatocytes; cited from earlier work
[3] = test system: SGLT1; set-up: method as in PMID 32183468; settings: cited from earlier work
[4] = test system: hepatocytes; set-up: method as in PMID 32932946; settings: human cells (hepatocytes); cited from earlier work
[5] = Recovery from urine and feces over 72 h in rats; type: in vivo, Sprague Dawley (SD) rats; settings: for Recovery, Feces / Recovery, Urine: parent form
Description: Three rats received enavogliflozin (1 mg/kg) intravenously and were returned to metabolic cages with food and water ad libitum and urine and feces samples were collected every 24 h for 72 h. Four rats received enavogliflozin (1 mg/kg) by oral gavage and were returned to their metabolic cages to collect urine and feces samples every 24 h for 72 h with the same protocols described above.
as §1
Aliquots of plasma or urine (30 µL each) and tissue homogenate (50 µL each) were added to 100 µL of aqueous solution of d4-enavogliflozin (IS, 20 ng/mL), and vigorously mixed with 500 µL MTBE for 15 min. After centrifugation at 16,000× g for 5 min, samples were kept for 1 h, at a temperature of −80 °C to freeze the aqueous layer freeze. The organic upper layer was then transferred to a clean tube and evaporated to dryness under a gentle stream of nitrogen. The dried extract was reconstituted in 150 µL of mobile phase, and a 3 µL aliquot was injected into the LC–MS/MS system. Enavogliflozin was separated on a Synergi Polar RP column (2.0 × 150 mm, 4 µm particle size; Phenomenex, Torrence, CA, USA) using a isocratic mobile phase consisting of water (15%) and methanol (85%) containing 0.1% formic acid at a flow rate of 0.25 mL/min.

[6] = test system: hepatocytes; set-up: method as in PMID 32932946; settings: mouse hepatocytes; cited from earlier work

OC[C@H]1O[C@@H](c2cc(Cc3ccc(C4CC4)cc3)c(Cl)c3c2CCO3)[C@H](O)[C@@H](O)[C@@H]1O [enavogliflozin, (2S,3R,4R,5S,6R)-2-(7-chloro-6-(4-cyclopropylbenzyl) -2,3-dihydrobenzofuran-4-yl)-6-(hydroxymethyl)tetrahydro-2H-pyran-3,4,5-triol]
Kp ([1]; kidney, repeated dose for 7 days, kidney): 37.6 ± 5.9 | Kp ([1]; kidney, repeated dose for 14 days, kidney): 38.4 ± 18 | Kp ([1]; kidney, single dose, kidney): 38.7 ± 6.3 | Kp ([1]; large intestine, repeated dose for 7 days, large intestine): 2.33 ± 0.34 | Kp ([1]; large intestine, repeated dose for 14 days, large intestine): 2.2 ± 0.71 | Kp ([1]; large intestine, single dose, large intestine): 3.24 ± 1.1 | Kp ([1]; liver, repeated dose for 7 days, liver): 3.77 ± 0.73 | Kp ([1]; liver, repeated dose for 14 days, liver): 4.37 ± 2.6 | Kp ([1]; liver, single dose, liver): 4.85 ± 0.64 | AUC(0-t) ([1]; repeated dose for 7 days): 2.09 ± 0.29 µg·h/mL | AUC(0-t) ([1]; repeated dose for 14 days): 2.36 ± 0.69 µg·h/mL | AUC(0-t) ([1]; single dose): 2.13 ± 0.27 µg·h/mL | Kp ([1]; small intestine, repeated dose for 7 days, small intestine): 4.5 ± 0.89 | Kp ([1]; small intestine, repeated dose for 14 days, small intestine): 3.4 ± 1.5 | Kp ([1]; small intestine, single dose, small intestine): 3.47 ± 0.49 | AUC48 h ([1]; repeated dose for 7 days, kidney): 77.2 ± 6.3 µg·h/g | AUC48 h ([1]; repeated dose for 7 days, large intestine): 4.88 ± 1.1 µg·h/g | AUC48 h ([1]; repeated dose for 7 days, liver): 7.89 ± 2.1 µg·h/g | AUC48 h ([1]; repeated dose for 7 days, small intestine): 9.39 ± 2.1 µg·h/g | AUC48 h ([1]; repeated dose for 14 days, kidney): 81.6 ± 4.8 µg·h/g | AUC48 h ([1]; repeated dose for 14 days, large intestine): 4.90 ± 1.5 µg·h/g | AUC48 h ([1]; repeated dose for 14 days, liver): 8.85 ± 1.8 µg·h/g | AUC48 h ([1]; repeated dose for 14 days, small intestine): 7.46 ± 2.3 µg·h/g | AUC48 h ([1]; single dose, kidney): 80.9 ± 5.1 µg·h/g | AUC48 h ([1]; single dose, large intestine): 5.68 ± 1.6 µg·h/g | AUC48 h ([1]; single dose, liver): 10.2 ± 1.0 µg·h/g | AUC48 h ([1]; single dose, small intestine): 7.30 ± 0.77 µg·h/g | In vitro hepatic clearance [2]: 1.11 L/h/kg | IC50 [3]: 0.549 ± 0.14 µM | In vitro hepatic clearance [4]: 0.27 L/h/kg | Recovery in feces relative to urine ([5]; 1 mg/kg IV): about 22.7 fold | Recovery, Feces ([5]; 1 mg/kg IV, 0–24 h): 15.2 ± 6.2 % of Dose | Recovery, Feces ([5]; 1 mg/kg IV, 0–72 h, 1 mg/kg): 15.9 ± 5.9 % of Dose and 15.9 % of Dose | Recovery, Urine ([5]; 1 mg/kg IV, 0–72 h, 1 mg/kg): 0.7 ± 0.2 % of Dose and 0.7 % of Dose | Recovery, Feces ([5]; 1 mg/kg IV, 24–48 h): 0.7 ± 0.8 % of Dose | Recovery, Urine ([5]; 1 mg/kg IV, 24–48 h): 0.1 ± 0.0 % of Dose | Recovery, Feces ([5]; 1 mg/kg PO, 0–24 h): 44.5 ± 11.8 % of Dose | Recovery, Urine ([5]; 1 mg/kg PO, 0–24 h): 0.3 ± 0.1 % of Dose | Recovery, Urine ([5]; 1 mg/kg PO, 0–72 h): 0.3 ± 0.1 % of Dose | Recovery, Feces ([5]; 1 mg/kg PO, 0–72 h, 1 mg/kg): 45.5 % of Dose | Recovery, Feces ([5]; 1 mg/kg PO, 24–48 h): 0.9 ± 0.4 % of Dose | Recovery, Feces ([5]; 1 mg/kg PO, 48–72 h): 0.2 ± 0.0 % of Dose | Recovery, Urine ([5]; 1 mg/kg PO, 48–72 h): 0.3 ± 0.1 % of Dose | dose excreted ([5]; Sprague-Dawley, rat, urine and feces, 1 mg/kg IV, 72 h, read-out: total recovery (feces + urine)): ~16.6% | In vitro hepatic clearance [6]: 2.19 L/h/kg
